{"source": "paper PMC6297231", "about": "(Nature Communications, 2018)", "key": {"[1]": {"tested_on": "MOLP-8 cells", "assay": "Kinetics of apoptosis and cell death markers", "assay_type": "cell-based", "protocol": "Data presented in Fig. 4b was calculated as follows:4 TMRE:(TMREnegativesample-TMREnegativeDMSO)∕(TMREnegative500nMAZD5991@24h-TMREnegativeDMSO)×100 5 Annexin V : (Annexin V positive sample) - Annexin positive DMSO∕(Annexin positive 500nM AZD5991@24h) - Annexin positive DMSO × 100 6 7AAD : (7AAD positive sample) - 7AAD positive 500nM AZD5991@0.5h∕(7AAD positive 500nM AZD5991@16h) - 7AAD positive 500nM AZD5991@0.5h × 100"}, "[2]": {"tested_on": "murine Eµ-Myc lymphoma tumors", "assay": "GFP-labeled Eµ-Myc lymphoma model", "assay_type": "in vivo, mice", "conditions": "100 mg kg^−1 on day 3 and day 10 post-transplantation", "excerpt": "Eµ-Myc: These studies complied with all ethical regulations in accordance with the guidelines established by the Institutional Animal Experimentation Ethics Committee, Peter MacCallum Cancer Center. Non-irradiated C57BL/6 mice between 6 and 8 weeks old were transplanted by tail vein injection with 100,000 GFP-labeled Eμ-Myc lymphoma cells[39] harvested from lymph nodes of a syngeneic mouse. Treatment started 3 days after implantation. AZD5991 and vehicle were formulated and administered as mentioned above. Peripheral blood was collected by retro-orbital sampling 11 days post-transplantation and GFP-expressing leukemic cells assessed by flow cytometry using a BD FACSCanto II cytometer and data analyzed using Flowlogic software. Gating strategy is shown in Supplementary Figure 8."}, "[3]": {"tested_on": "NCI-H929", "assay": "Cell viability assay", "assay_type": "cell-based", "conditions": "Homo sapiens, 24 h; NCI-H929 (MM); read-out: AZD5991 24h GI50"}, "[4]": {"tested_on": "KMS34", "assay": "Cell viability assay", "assay_type": "cell-based", "conditions": "KMS-34, 24 h; KMS34 (MM); read-out: AZD5991 24h GI50"}, "[5]": {"tested_on": "U266B1", "assay": "Cell viability assay", "assay_type": "cell-based", "conditions": "24 h; U266B1 (MM); read-out: AZD5991 24h GI50"}, "[6]": {"tested_on": "ME1", "assay": "Cell viability assay", "assay_type": "cell-based", "conditions": "ME-1, 24 h; ME1 (AML); read-out: AZD5991 24h GI50"}, "[7]": {"tested_on": "MONOMAC6", "assay": "Cell viability assay", "assay_type": "cell-based", "conditions": "Homo sapiens, MONO-MAC-6, 24 h; MONOMAC6 (AML); read-out: AZD5991 24h GI50"}, "[8]": {"tested_on": "OCIAML3", "assay": "Cell viability assay", "assay_type": "cell-based", "conditions": "Homo sapiens, OCI-AML-3, 24 h, read-out: AZD5991 24h GI50"}, "[9]": {"tested_on": "KG1a", "assay": "Cell viability assay", "assay_type": "cell-based", "conditions": "Homo sapiens, KG-1a, 24 h; KG1a (AML); read-out: AZD5991 24h GI50"}, "[10]": {"tested_on": "CMK", "assay": "Cell viability assay", "assay_type": "cell-based", "conditions": "Homo sapiens, 24 h; CMK (AML); read-out: AZD5991 24h GI50"}, "[11]": {"tested_on": "Bjab", "assay": "Cell viability assay", "assay_type": "cell-based", "conditions": "Homo sapiens, 24 h; Bjab (NHL); read-out: AZD5991 24h GI50"}, "[12]": {"tested_on": "OCILY7", "assay": "Cell viability assay", "assay_type": "cell-based", "conditions": "Homo sapiens, OCI-Ly7, 24 h; OCILY7 (NHL); read-out: AZD5991 24h GI50"}, "[13]": {"tested_on": "Sudhl4", "assay": "Cell viability assay", "assay_type": "cell-based", "conditions": "Homo sapiens, SU-DHL-4, 24 h; Sudhl4 (NHL); read-out: AZD5991 24h GI50"}, "[14]": {"tested_on": "Sudhl8", "assay": "Cell viability assay", "assay_type": "cell-based", "conditions": "Homo sapiens, SU-DHL-8, 24 h; Sudhl8 (NHL); read-out: AZD5991 24h GI50"}, "[15]": {"tested_on": "Z-138", "assay": "Cell viability assay", "assay_type": "cell-based", "conditions": "Homo sapiens, 24 h; Z-138 (NHL); read-out: AZD5991 24h GI50"}, "[16]": {"tested_on": "H1975", "assay": "Cell viability assay", "assay_type": "cell-based", "conditions": "Homo sapiens, NCI-H1975, 24 h; H1975 (Lung); read-out: AZD5991 24h GI50"}, "[17]": {"tested_on": "H446", "assay": "Cell viability assay", "assay_type": "cell-based", "conditions": "Homo sapiens, NCI-H446, 24 h; H446 (Lung); read-out: AZD5991 24h GI50"}, "[18]": {"tested_on": "H460", "assay": "Cell viability assay", "assay_type": "cell-based", "conditions": "Homo sapiens, NCI-H460, 24 h; H460 (Lung); read-out: AZD5991 24h GI50"}, "[19]": {"tested_on": "HCC827", "assay": "Cell viability assay", "assay_type": "cell-based", "conditions": "Homo sapiens, 24 h; HCC827 (Lung); read-out: AZD5991 24h GI50"}, "[20]": {"tested_on": "SKLU1", "assay": "Cell viability assay", "assay_type": "cell-based", "conditions": "Homo sapiens, SK-LU-1, 24 h; SKLU1 (Lung); read-out: AZD5991 24h GI50"}, "[21]": {"tested_on": "MCF7", "assay": "Cell viability assay", "assay_type": "cell-based", "conditions": "Homo sapiens, 24 h; MCF7 (Breast); read-out: AZD5991 24h GI50"}, "[22]": {"tested_on": "A101D", "assay": "Cell viability assay", "assay_type": "cell-based", "conditions": "Homo sapiens, 24 h; A101D (Skin); read-out: AZD5991 24h GI50"}, "[23]": {"tested_on": "A2058", "assay": "Cell viability assay", "assay_type": "cell-based", "conditions": "Homo sapiens, 24 h; A2058 (Skin); read-out: AZD5991 24h GI50"}, "[24]": {"tested_on": "WM2664", "assay": "Cell viability assay", "assay_type": "cell-based", "conditions": "Homo sapiens, WM 266-4, 24 h; WM2664 (Skin); read-out: AZD5991 24h GI50"}, "[25]": {"tested_on": "ME1", "assay": "Caspase-3/7 activation assay", "assay_type": "cell-based", "conditions": "ME-1, 6 h"}, "[26]": {"tested_on": "NCI-H23 cells with enhanced expression of Bcl-xL", "assay": "Cell death in NCI-H23 with doxycycline-inducible Bcl-xL"}}, "note": "Like-named read-outs stand apart in the source and are kept apart here.", "data": [{"smiles": "Cc1c2c(nn1C)CSCc1cc(n(C)n1)CSc1cc(c3ccccc3c1)OCCCc1c(C(=O)O)n(C)c3c-2c(Cl)ccc13", "note": "(atropisomer, axis not shown; (Ra)) [(Ra)-7]", "values": [{"measurement": "time to loss of ATP and disruption of the cell membrane", "setting": "[1]", "value": "less than 24 h"}, {"measurement": "time to maximum increase in MOMP, caspase-3/7 activation and phosphatidyl-serine exposure", "setting": "[1]; MOLP-8 cells, 500 nM", "value": "less than 2 h"}, {"measurement": "survival vs. vehicle control group", "setting": "[2]", "value": "prolonged survival"}, {"measurement": "leukemic cells in peripheral blood", "setting": "[2]; day 11", "value": "depletion of leukemic cells from peripheral blood"}, {"measurement": "GI50", "setting": "[3]", "value": 53, "unit": "nM"}, {"measurement": "GI50", "setting": "[4]", "value": 503, "unit": "nM"}, {"measurement": "GI50", "setting": "[5]", "value": "> 30000", "unit": "nM"}, {"measurement": "GI50", "setting": "[6]", "value": 220, "unit": "nM"}, {"measurement": "GI50", "setting": "[7]", "value": 226, "unit": "nM"}, {"measurement": "GI50", "setting": "[8]", "value": 714, "unit": "nM"}, {"measurement": "GI50", "setting": "[9]", "value": 1430, "unit": "nM"}, {"measurement": "GI50", "setting": "[10]", "value": "> 30000", "unit": "nM"}, {"measurement": "GI50", "setting": "[11]", "value": 16, "unit": "nM"}, {"measurement": "GI50", "setting": "[12]", "value": 24, "unit": "nM"}, {"measurement": "GI50", "setting": "[13]", "value": 127, "unit": "nM"}, {"measurement": "GI50", "setting": "[14]", "value": 198, "unit": "nM"}, {"measurement": "GI50", "setting": "[15]", "value": 290, "unit": "nM"}, {"measurement": "GI50", "setting": "[16]", "value": 17600, "unit": "nM"}, {"measurement": "GI50", "setting": "[17]", "value": 319, "unit": "nM"}, {"measurement": "GI50", "setting": "[18]", "value": 26400, "unit": "nM"}, {"measurement": "GI50", "setting": "[19]", "value": 20100, "unit": "nM"}, {"measurement": "GI50", "setting": "[20]", "value": 29900, "unit": "nM"}, {"measurement": "GI50", "setting": "[21]", "value": 1350, "unit": "nM"}, {"measurement": "GI50", "setting": "[22]", "value": 175, "unit": "nM"}, {"measurement": "GI50", "setting": "[23]", "value": 765, "unit": "nM"}, {"measurement": "GI50", "setting": "[24]", "value": 13200, "unit": "nM"}, {"measurement": "EC50", "setting": "[25]; read-out: 6h caspase EC50, ME1, single agent", "value": "> 333", "unit": "nM"}, {"measurement": "EC50", "setting": "[25]; read-out: AZD5991 6h EC50, ME1 (AML), caspase 3/7 activation", "value": 326, "unit": "nM"}, {"measurement": "induced cell death", "setting": "[26]", "value": "resistance"}]}]}
